Test results taken from patent US10301308B2, “Azetidine derivatives for tau imaging” (Eli Lilly and Company, priority 2015, dated 2019).

Legend:
[1] = system: native tau aggregates vs native β-amyloid aggregates in human brain sections; experiment: Autoradiography selectivity towards tau versus β amyloid in AD human brain tissue; assay type: binding; conditions: for selectivity ratio for Tau:Aβ: 5 Tau+Aβ+ and 2 Tau-Aβ+ brain specimens; for grey matter to white matter (GM/WM) signal ratio: autoradiography, Tau+Aβ+ brain specimens; for binding sites observed in autoradiography: human brain sections Groups A, B, C
Source text: Based on the anti-tau and anti-amyloid immunostaining results of brain sections, three groups of human brain sections are selected for autoradiography experiments to determine the native tau-binding selectivity of 3-(3-[18F]-fluoroazetidin-1-yl)-8-methylbenzo[4,5]imidazo[1,2-a]pyridine. Group A are tau-rich AD brain slices (labeled as Tau+Aβ+), Group B are tau-poor AD brain slices (marked as Tau-Aβ+), and Group C are Tau-Aβ− normal brain slices. […] The human AD brain sections in Group B are #33562, #32656, #33998, #35682, and #33563. The normal human brain sections in group C are #29092 and #32566. Tissue slices from the same donors are used to calculate selectivity for all three compounds for testing according to Assay Example 5. Autoradiography is performed for each of these three groups of brains on adjacent 10 μm sections with the amyloid tracer [18F]W372 to quantify the β-amyloid burden. [18F]W372 is a selective amyloid binding tracer discovered by Siemens and evaluated under IND 105173. Sections are covered with 0.5 ml of 3-(3-[18F]-fluoroazetidin-1-yl)-8-methylbenzo[4,5]imidazo[1,2-a]pyridine (in 2.5:2.5:95 DMSO:EtOH:1×PBS, about 20 μCi/slide) and incubated for 1.5 hrs. Then successive washing cycles (1 min PBS, 2 min 30% EtOH/PBS, 2 min 70% EtOH/PBS, 1 min PBS) are employed to remove any unbound tracer. The sections are air dried, placed on a phosphorimaging plate (Fuji IP plate), and exposed overnight. The IP plate is read using a GE Healthcare Life Sciences Typhoon FLA 7000 Phosphorimager. The signal intensity of the grey matter is measured using Fujifilm Multi Gauge software. After subtracting the background signal (signal in the cortex region of Group C), the signal of individual sections of Group A and B are normalized with corresponding signal from autoradiography of the respective adjacent sections with [18F]W372. The calculations are based on Group B brain sections #32656 and #33998, which have undetectable tau pathology by immunohistochemistry. The normalized signal for 3-(3-[18F]-fluoroazetidin-1-yl)-8-methylbenzo[4,5]imidazo[1,2-a]pyridine in Group B brain sections is the relative signal level of 3-(3-[18F]-fluoroazetidin-1-yl)-8-methylbenzo[4,5]imidazo[1,2-a]pyridine to [F-18]W372 resulting from binding to native β-amyloid aggregates. The binding level of 3-(3-[18F]-fluoroazetidin-1-yl)-8-methylbenzo[4,5]imidazo[1,2-a]pyridine to native tau-aggregates in Group A sections is estimated by subtracting the amount of the total signal attributable to binding to 3-amyloid (calculated by multiplying the total signal from [18F]W372 binding to β-amyloid in the adjacent section by the relative signal of 3-(3-[18F]-fluoroazetidin-1-yl)-8-methylbenzo[4,5]imidazo[1,2-a]pyridine to [18F]W372 determined from the Group B sections). The resulting difference is then divided by the signal attributable to binding to β-amyloid to estimate the selectivity of 3-(3-[18F]-fluoroazetidin-1-yl)-8-methylbenzo[4,5]imidazo[1,2-a]pyridine. […] The selectivity of 3-(3-[18F]-fluoroazetidin-1-yl)-8-methylbenzo[4,5]imidazo[1,2-a]pyridine binding to native tau aggregates vs. binding native β-amyloid aggregates is reflected by the ratio of Group A (Tau+Aβ+) signal to the signal of the brain sections #32656 and #33998.

[2] = Mouse PET/CT time activity curves; assay type: in vivo, CD-1 wild type mice; conditions: mouse PET/CT time activity curves
Procedure: Dynamic Micro-Positron Emission Tomography (mPET) images are obtained from CD-1 wild type mice using 3-(3-[18F]-fluoroazetidin-1-yl)-8-methylbenzo[4,5]imidazo[1,2-a]pyridine. Micro-Computed Tomography (mCT) of each subject is used as anatomical reference for image analysis. Biodistribution of the tracer in brain, muscle, bone, liver, and kidney is assessed by generating Time Activity Curves (TAC) using the fused mPET/mCT images. An INVEON multimodality scanner (Siemens, Germany) is used for mPET/mCT. All animal work is performed in accordance with the University of Sciences Institutional Animal Care & Use Committee-approved procedures.
Animals are anesthetized with 3% isoflurane/97% oxygen and are placed on the scanner bed. A short high-resolution CT scan is first performed for anatomical registration, followed by a 120-minute PET scan. During the PET scan a water heating system is placed underneath the bed to help maintain the body temperature. Within 3 minutes after the beginning of the PET acquisition, the [18F]-labeled compound 3-(3-[18F]-fluoroazetidin-1-yl)-8-methylbenzo[4,5]imidazo[1,2-a]pyridine is administered to the animals via tail vein injection (250 uCi in a total volume of 200 uL saline). A PET image is generated for each minute of the acquisition time. Uptake of the tracer is obtained by visually drawing regions of interest based on the fused PET/CT images, and the corresponding activity values are determined using the INVEON Research Workplace software (Siemens, Germany). All values are represented as percent injected dose per gram (% ID/g).
The mouse PET/CT time activity curves of 3-(4-(2-[18F]-fluoroethyl)piperidin-1-yl)-8-methoxybenzo[4,5]imidazo[1,2-a]pyridine (T821) (See FIG. 9) and of 3-(4-[18F]-fluoropiperidin-1-yl)-8-methoxybenzo[4,5]imidazo[1,2-a]pyridine (T798) (See FIG. 10) are obtained as described in Assay Example 7 (T821 and T798 are recited in US2011/0182812). […] Therefore, when imaging with T821 and/or T798, the undesirable non-tau PET signals from the skull bones could interfere with desired tau signals from the brain cortex. Thus, in addition to the lack of selectivity for T821 and T798, these compounds would further represent poor candidates for human brain tau PET tracers because of the interfering radioactivity signal from bone. […] The advantageous properties of Compound 8 are useful to provide enhanced tau PET imaging in humans. This combination of critical properties was not known and could not have been predicted from existing tau imaging compounds.

[3] = molecular target: PHF (tau from Alzheimer's disease donors) (Homo sapiens, UniProt P10636); experiment: Competition radioligand binding versus [18F]AV-1451 on PHF (Ki determination)
Source text: Purified, soluble PHF is isolated from AD brain tissue using a protocol modified from the procedure described by Jicha, et al. (G. A. Jicha, A. O'Donnell, C. Weaver (1999) “Hierarchical phosphorylation of recombinant tau by the paired-helical filament-associated protein kinase is dependent on cyclic AMP-dependent protein kinase” J Neurochem. 72(1):214). Briefly, AD cortex is homogenized using a handheld Kinematica Polytron, followed by high pressure batch—gas expansion using a Parr Cell disruption bomb. Crude homogenate is centrifuged at 28 kg to pellet cell debris. Soluble PHF is isolated from the supernatant by affinity chromatography over an Affigel-10 column on which the tau antibody MCI, which recognizes a pathological conformation of tau, has been immobilized (G. A. Jicha, R. Bowser, I. G. Kazam (1997), “Alz-50 and MC-1, a new monoclonal antibody raised to paired helical filaments, recognize conformational epitopes on recombinant tau” J Neurosci Res. 48(2): 12.)
The IC50 (i.e. the molar concentration of competing ligand which reduces the specific binding of a radioligand by 50%) for the unlabeled compound is determined by competition radioligand binding, in which the binding of [18F]AV-1451 to PHF is competed with unlabeled compound at various concentrations. […]

tau protein = experiment: Clinical PET imaging of tau protein in the brain (SUVr); assay type: in vivo, human; conditions: AD subjects vs healthy controls
Procedure: (§1) Clinical evaluation of 3-(3-[18F]-Fluoroazetidin-1-yl)-8-methylbenzo[4,5]imidazo[1,2-a]pyridine (Compound 8) as a PET radioligand for imaging tau protein deposition in patients with AD or other neurodegenerative disorders is conducted in healthy volunteers. AD patients, or Chronic Traumatic Encephalopathy (CTE) subjects, by completion of one or more PET scans with Compound 8. Dynamic PET imaging is acquired on a Siemens ECAT EXACT HR+ over 150 minutes following Compound 8 or [18F]AV-1451 injection (0-60 and 90-150 minute imaging segments). Compound 8 or [18F]AV-1451 scans are acquired similarly in two imaging sessions. A brain MRI is also obtained. PET and MRI images are aligned and normalized, and ATLAS-based volumes of interest (VOI) are applied to the dynamic PET series. Compound 8 or [18F]AV-1451 are evaluated in terms of kinetic profile as well as target region to cerebellum standardized uptake value ratio (SUVr between 100-120 min) between healthy volunteers and AD or CTE subjects.

[4] = Clinical PET kinetic profile: brain uptake, washout, metabolism; assay type: in vivo, human; conditions: human subjects, dynamic PET
Procedure: as §1

Sequence of PHF (tau from Alzheimer's disease donors) (P10636 623-695 limits assumed): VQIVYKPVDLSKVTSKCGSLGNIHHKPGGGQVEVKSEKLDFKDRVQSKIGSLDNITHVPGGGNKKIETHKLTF

Structure (SMILES) | selectivity ratio for Tau:Aβ [1] | grey matter to white matter (GM/WM) signal ratio [1] | binding sites observed in autoradiography [1] | bone uptake of radioactivity [2] | Ki ([3]; tau obtained from donors with Alzheimer's disease, from IC50 by Cheng-Prusoff) [nM] | Kd ([3]; value used in the Cheng-Prusoff equation, read-out: Kd, dissociation constant of the radioligand) [nM] | uptake in cortical brain regions, AD subjects compared with healthy controls (tau protein) | peak brain uptake [4] [SUV]
COc1ccc2nc3cc(N4CCC([18F])CC4)ccn3c2c1 [Compound T798, 3-(4-[18F]-fluoropiperidin-1-yl)-8-methoxybenzo[4,5]imidazol[1,2-a]pyridine, reference compound] | approximately 8.4±1.7 | approximately 18.0±3.2 | binds to tau, amyloid, and unidentified binding sites in normal human brain | bone uptake of radioactivity increases with time |  |  |  | 
Cc1ccc2nc3cc(N4CC(F)C4)ccn3c2c1 [Compound 4, 3-(3-fluoroazetidin-1-yl)-8-methylbenzo[4,5]imidazo[1,2-a]pyridine] |  |  |  |  | 0.6 |  |  | 
[18F]c1ccc(-c2ccc3c(c2)[nH]c2ccncc23)cn1 [[18F]AV-1451, reference compound] |  |  |  |  |  | 0.57 | Higher uptake | ~6
COc1ccc2nc3cc(N4CCC(CC[18F])CC4)ccn3c2c1 [Compound T821, 3-(4-(2-[18F]-fluoroethyl)piperidin-1-yl)-8-methoxybenzo[4,5]imidazo[1,2-a]pyridine, reference compound] | approximately 2.22±0.45 | approximately 11.7±1.2 | binds to tau, amyloid, and unidentified binding sites in normal human brain | bone uptake of radioactivity increases with time |  |  |  | 
